17 compounds from US9346801B2, “Substituted 7-oxo-pyrido[2,3-d]pyrimidines and methods of use” (AMGEN INC., priority 2013, dated 2016) can be followed below.

Molecules are shown by their SMILES.

What all share (type): cell-based
For assay [1], the system named is H1975 (T790M/L858R) NSCLC cells. The assay is described as follows: Inhibition of proliferation of NSCLC cell lines, H1975. The following applies: Cell Titer Glow; for IC50: Homo sapiens, NCI-H1975, 72 h, read-out: H1975 cell killing IC50; for H1975 cell killing IC50: 72 h. As to the method: (§1) NSCLC cell lines H1975 (T790M/L858R), HCC827 (Δ746-750) and A549 (wild-type) were seeded in 96-well tissue culture plates (Corning, Lowell, Mass.) at 5,000 cells/well (H1975) and 4,000 cells/well (HCC827 and A549) in 95 μL of cell growth media overnight. Compounds starting at 10 mM concentration and diluted 8 times (4-fold dilutions) in DMSO were diluted 50 fold in RPM1 then 5 μL was added to cells. After 72 h, viable cell signal was quantified using Cell Titer Glow (Promega, Madison, Wis.) and a SpectraMax M5 plate reader (Molecular Devices, Sunnyvale, Calif.) per manufacturer's instructions. Final DMSO concentration in test and control wells was 0.1%. No DSMO effect was noted on cell growth.

For assay [2], the target named is T1, wild-type EGFR phosphorylation in A549 NSCLC cells (Homo sapiens, UniProt P00533).
T1 construct: Wild-type A549 cells were challenged with 100 ng/ml EGF for 15 min before collection; endogenous in cells; host or cells: A549 NSCLC cells
T1 sequence (P00533 25-1210): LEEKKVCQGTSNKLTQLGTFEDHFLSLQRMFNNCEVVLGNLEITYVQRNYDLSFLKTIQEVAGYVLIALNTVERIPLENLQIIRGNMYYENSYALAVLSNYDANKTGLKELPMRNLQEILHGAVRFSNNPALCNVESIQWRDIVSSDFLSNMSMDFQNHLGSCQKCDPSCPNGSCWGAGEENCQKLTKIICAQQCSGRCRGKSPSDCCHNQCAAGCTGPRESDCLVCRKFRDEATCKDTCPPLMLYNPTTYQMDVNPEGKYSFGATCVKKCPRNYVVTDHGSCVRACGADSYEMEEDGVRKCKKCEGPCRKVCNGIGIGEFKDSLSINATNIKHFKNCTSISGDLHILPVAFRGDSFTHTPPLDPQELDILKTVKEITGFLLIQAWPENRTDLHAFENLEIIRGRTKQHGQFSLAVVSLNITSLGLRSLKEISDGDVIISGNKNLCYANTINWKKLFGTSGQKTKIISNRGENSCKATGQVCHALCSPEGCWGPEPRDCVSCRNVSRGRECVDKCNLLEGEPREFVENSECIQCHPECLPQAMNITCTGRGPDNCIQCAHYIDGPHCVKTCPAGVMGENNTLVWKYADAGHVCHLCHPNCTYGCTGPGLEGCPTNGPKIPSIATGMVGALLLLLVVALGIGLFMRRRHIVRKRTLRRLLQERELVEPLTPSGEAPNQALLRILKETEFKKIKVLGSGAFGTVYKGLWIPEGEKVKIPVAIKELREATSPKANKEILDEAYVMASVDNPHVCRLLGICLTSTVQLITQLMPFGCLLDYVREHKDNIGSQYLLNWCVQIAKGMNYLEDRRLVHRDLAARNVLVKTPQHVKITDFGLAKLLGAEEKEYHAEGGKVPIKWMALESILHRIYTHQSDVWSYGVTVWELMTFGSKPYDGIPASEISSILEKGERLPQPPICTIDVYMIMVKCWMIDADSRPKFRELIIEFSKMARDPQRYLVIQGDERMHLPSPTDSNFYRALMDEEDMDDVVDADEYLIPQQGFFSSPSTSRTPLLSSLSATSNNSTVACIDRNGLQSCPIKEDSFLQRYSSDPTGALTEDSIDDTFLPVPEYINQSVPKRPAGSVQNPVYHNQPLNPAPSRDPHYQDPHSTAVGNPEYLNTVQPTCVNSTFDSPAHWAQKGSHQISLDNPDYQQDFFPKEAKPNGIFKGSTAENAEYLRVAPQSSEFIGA
Kind of assay: Detection of pEGFR on NSCLC cell lines (MSD multiplex), A549. The following applies: 60 min compound, 100 ng/ml EGF for 15 min. As to the method: (§2) The effects of compounds on the phosphorylation of wild-type, T790M mutant, and Exon19 deletion (A746-750) EGFR were monitored using Mesoscalc™ multiplex assays (MSD), in which levels of phosphorylated EGFR protein were determined using total […] levels as a control. H1975 (T790M/L858R), HCC827 (Δ746-750) and A549 (wild-type EGFR) NSCLC cells were plated on 6-well tissue culture plates, serum starved for overnight and treated with 9 concentrations of compound starting at 2 μM (5-fold dilutions) for 60 min. Wild-type A549 cells were challenged with 100 ng/ml EGF for 15 min before collection. Cells were lysed according to manufacturer's instructions and lysates processed for analysis in the […]) multiplex plate reader.

In assay [3] the test system is HCC827 (Δ746-750) NSCLC cells. Kind of assay: Inhibition of proliferation of NSCLC cell lines, HCC827. To be noted: Homo sapiens, 72 h, Cell Titer Glow, read-out: HCC827 cell killing IC50. As to the method:
as §1
A general note: ATP-based viability assays read luminescence as a measure of living cells.

Assay [4] deals with T2, Exon19 deletion (Δ746-750) EGFR phosphorylation in HCC827 NSCLC cells (Homo sapiens, UniProt P00533, DEL746-750).
T2 construct: endogenous in cells; host or cells: HCC827 NSCLC cells
T2 sequence (P00533 with tags, fused parts or gaps DEL746-750): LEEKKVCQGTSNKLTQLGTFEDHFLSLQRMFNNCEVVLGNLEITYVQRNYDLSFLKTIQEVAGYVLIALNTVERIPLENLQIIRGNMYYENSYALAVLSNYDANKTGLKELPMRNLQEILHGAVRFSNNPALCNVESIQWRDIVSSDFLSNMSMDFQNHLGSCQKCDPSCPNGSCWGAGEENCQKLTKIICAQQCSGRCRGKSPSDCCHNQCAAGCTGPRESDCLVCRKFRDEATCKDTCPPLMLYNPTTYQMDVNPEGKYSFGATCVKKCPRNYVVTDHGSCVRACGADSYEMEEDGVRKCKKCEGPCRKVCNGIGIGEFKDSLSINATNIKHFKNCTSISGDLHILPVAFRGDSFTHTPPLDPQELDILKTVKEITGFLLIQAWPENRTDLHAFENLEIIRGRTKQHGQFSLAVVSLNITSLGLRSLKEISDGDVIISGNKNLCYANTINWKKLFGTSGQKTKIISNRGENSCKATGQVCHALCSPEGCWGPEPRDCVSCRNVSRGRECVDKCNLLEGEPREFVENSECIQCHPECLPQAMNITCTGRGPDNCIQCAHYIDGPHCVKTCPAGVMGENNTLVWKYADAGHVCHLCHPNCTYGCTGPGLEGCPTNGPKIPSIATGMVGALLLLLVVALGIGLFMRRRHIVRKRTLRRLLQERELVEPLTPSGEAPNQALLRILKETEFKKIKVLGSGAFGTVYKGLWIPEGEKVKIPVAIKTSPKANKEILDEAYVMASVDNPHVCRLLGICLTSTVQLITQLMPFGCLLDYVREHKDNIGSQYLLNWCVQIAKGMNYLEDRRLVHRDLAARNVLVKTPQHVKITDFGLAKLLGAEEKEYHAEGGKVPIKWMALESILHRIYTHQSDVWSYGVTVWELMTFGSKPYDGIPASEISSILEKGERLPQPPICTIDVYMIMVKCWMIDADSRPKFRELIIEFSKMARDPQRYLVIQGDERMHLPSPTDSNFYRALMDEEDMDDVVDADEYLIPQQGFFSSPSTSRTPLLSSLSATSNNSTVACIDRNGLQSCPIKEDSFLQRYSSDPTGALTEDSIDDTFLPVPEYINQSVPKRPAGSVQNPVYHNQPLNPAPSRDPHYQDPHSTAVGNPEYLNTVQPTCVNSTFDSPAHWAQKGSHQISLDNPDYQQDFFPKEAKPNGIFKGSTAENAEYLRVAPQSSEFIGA
Kind of assay: Detection of pEGFR on NSCLC cell lines (MSD multiplex), HCC827. To be noted: HCC827 (Δ746-750) cells, serum starved, 60 min compound. The method, then: as §2

The target in assay [5] is T3, T790M mutant EGFR phosphorylation in H1975 (T790M/L858R) NSCLC cells (Homo sapiens, UniProt P00533, L858R/T790M).
T3 construct: endogenous in cells; host or cells: H1975 NSCLC cells
T3 sequence (P00533 25-1210 T790M/L858R): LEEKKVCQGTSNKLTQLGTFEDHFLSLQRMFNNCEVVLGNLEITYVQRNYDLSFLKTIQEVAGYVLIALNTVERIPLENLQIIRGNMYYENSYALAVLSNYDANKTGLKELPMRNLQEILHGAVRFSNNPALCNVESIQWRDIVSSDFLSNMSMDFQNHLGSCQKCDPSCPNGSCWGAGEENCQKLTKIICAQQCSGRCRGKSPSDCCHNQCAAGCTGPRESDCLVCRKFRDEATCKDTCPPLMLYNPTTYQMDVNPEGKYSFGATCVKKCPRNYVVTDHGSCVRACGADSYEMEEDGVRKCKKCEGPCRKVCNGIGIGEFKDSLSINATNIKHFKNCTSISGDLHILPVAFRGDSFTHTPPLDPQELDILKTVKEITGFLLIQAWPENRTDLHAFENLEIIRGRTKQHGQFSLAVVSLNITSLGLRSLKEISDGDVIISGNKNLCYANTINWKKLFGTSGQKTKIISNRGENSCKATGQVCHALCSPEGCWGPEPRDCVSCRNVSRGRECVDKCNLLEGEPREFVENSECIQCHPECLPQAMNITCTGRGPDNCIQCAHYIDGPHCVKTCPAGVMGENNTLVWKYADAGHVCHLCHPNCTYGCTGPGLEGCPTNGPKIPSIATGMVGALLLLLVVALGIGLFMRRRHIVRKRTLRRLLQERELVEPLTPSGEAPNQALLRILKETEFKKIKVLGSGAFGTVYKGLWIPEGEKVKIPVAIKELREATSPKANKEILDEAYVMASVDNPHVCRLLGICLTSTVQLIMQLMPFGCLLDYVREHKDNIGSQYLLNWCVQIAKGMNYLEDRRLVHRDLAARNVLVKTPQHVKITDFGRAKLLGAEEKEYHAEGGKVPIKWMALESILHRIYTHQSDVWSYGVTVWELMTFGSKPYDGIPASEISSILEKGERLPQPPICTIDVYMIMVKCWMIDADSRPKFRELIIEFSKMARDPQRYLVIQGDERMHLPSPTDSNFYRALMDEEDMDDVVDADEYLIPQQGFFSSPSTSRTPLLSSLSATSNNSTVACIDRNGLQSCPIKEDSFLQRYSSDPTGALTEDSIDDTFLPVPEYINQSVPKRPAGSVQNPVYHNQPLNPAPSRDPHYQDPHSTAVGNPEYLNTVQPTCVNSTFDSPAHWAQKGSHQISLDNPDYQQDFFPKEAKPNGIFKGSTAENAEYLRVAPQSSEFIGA
Kind of assay: Detection of pEGFR on NSCLC cell lines (MSD multiplex), H1975. The following applies: serum starved, 60 min compound. As to the method:
as §2

On to `C=CC(=O)Nc1cccc(-n2c(=O)ccc3cnc(Nc4ccc(N5CCN(C)CC5)cc4OC)nc32)c1` [Example 1, N-(3-(2-((2-methoxy-4-(4-methyl-1-piperazinyl)phenyl)amino)-7-oxopyrido[2,3-d]pyrimidin-8(7H)-yl)phenyl)-2-propenamide], for which the IC50 in assay [1] is 8 nM; in assay [2] it was 76 nM; in assay [3], 4 nM; in assay [4], 3.4 nM; in assay [5] it was 3.2 nM.
With `C=CC(=O)Nc1cccc(-n2c(=O)ccc3cnc(Nc4ccc(N5CCOCC5)cc4OC)nc32)c1` [Example 2, N-(3-(2-((2-methoxy-4-(4-morpholinyl)phenyl)amino)-7-oxopyrido[2,3-d]pyrimidin-8(7H)-yl)phenyl)-2-propenamide], the “H1975 cell killing IC50” value in assay [1] is “undefined”.
As to `C/C=C/C(=O)Nc1cccc(-n2c(=O)ccc3cnc(Nc4ccc(N5CCN(C)CC5)cc4OC)nc32)c1` [Example 3, (2E)-N-(3-(2-((2-methoxy-4-(4-methyl-1-piperazinyl)phenyl)amino)-7-oxopyrido[2,3-d]pyrimidin-8(7H)-yl)phenyl)-2-butenamide], the IC50 in assay [1] stood at 326 nM; in assay [3] it was 126 nM.
On to `C=CC(=O)Nc1cccc(-n2c(=O)ccc3cnc(Nc4ccc(N5CCN(C)CC5)cc4)nc32)c1` [Example 4, N-(3-(2-((4-(4-methyl-1-piperazinyl)phenyl)amino)-7-oxopyrido[2,3-d]pyrimidin-8(7H)-yl)phenyl)-2-propenamide], for which the half-maximal inhibitory concentration (IC50) in assay [1] was found to be 0.7 nM; in assay [3] it was 1 nM.
For `C=CC(=O)Nc1cccc(-n2c(=O)cc(C)c3cnc(Nc4ccc(N5CCN(C)CC5)cc4OC)nc32)c1` [Example 5], the half-maximal inhibitory concentration (IC50) in assay [1] is 4 nM; in assay [2], 323 nM; in assay [3] it was 10 nM; in assay [4], 8 nM; in assay [5], 2.8 nM.
Consider `C=CC(=O)Nc1cccc(-n2c(=O)c(CC)cc3cnc(Nc4ccc(N5CCN(C)CC5)cc4OC)nc32)c1` [Example 6, N-(3-(6-ethyl-2-((2-methoxy-4-(4-methyl-1-piperazinyl)phenyl)amino)-7-oxopyrido[2,3-d]pyrimidin-8(7H)-yl)phenyl)-2-propenamide], for which the IC50 in assay [1] turned out to be 12 nM; in assay [2], 8.2 nM; in assay [5], 4.3 nM.
Turning to `C=CC(=O)Nc1cccc(-n2c(=O)cc(C)c3cnc(Nc4ccc(N5CCOCC5)cc4OC)nc32)c1` [Example 7, N-(3-(2-((2-methoxy-4-(4-morpholinyl)phenyl)amino)-5-methyl-7-oxopyrido[2,3-d]pyrimidin-8(7H)-yl)phenyl)-2-propenamide], the “H1975 cell killing IC50” value in assay [1] is “undefined”. In addition, the IC50 in assay [3] is 2.81 nM.
For the compound `C=CC(=O)Nc1cccc(-n2c(=O)ccc3cnc(Nc4cnc(N5CCN(C)CC5)cc4OC)nc32)c1` [Example 8, N-(3-(2-((4-methoxy-6-(4-methyl-1-piperazinyl)-3-pyridinyl)amino)-7-oxopyrido[2,3-d]pyrimidin-8(7H)-yl)phenyl)-2-propenamide], the IC50 in assay [1] was determined as 92 nM; in assay [3] it was 21 nM.
Turning to `COc1cc(N2CCN(C)CC2)ccc1Nc1ncc2ccc(=O)n(-c3cccc(NC(=O)/C=C/CN(C)C)c3)c2n1` [Example 9, (2E)-4-(dimethylamino)-N-(3-(2-((2-methoxy-4-(4-methyl-1-piperazinyl)phenyl)amino)-7-oxopyrido[2,3-d]pyrimidin-8(7H)-yl)phenyl)-2-butenamide], the IC50 turned out to be 361 nM in assay [1] and 53 nM in assay [3].
In the case of `C=CC(=O)Nc1ccc(F)c(-n2c(=O)ccc3cnc(Nc4ccc(N5CCN(C)CC5)cc4OC)nc32)c1` [Example 10, N-(4-fluoro-3-(2-((2-methoxy-4-(4-methyl-1-piperazinyl)phenyl)amino)-7-oxopyrido[2,3]pyrimidin-8(7H)-yl)phenyl)-2-propenamide], the IC50 in assay [1] was 4 nM; in assay [2], 84 nM; in assay [3], 4 nM; in assay [5], 2 nM.
Regarding `C=CC(=O)Nc1cccc(-n2c(=O)ccc3cnc(Nc4ccc(NC5CN(CCF)C5)cc4OC)nc32)c1` [Example 11, N-(3-(2-((4-((1-(2-fluoroethyl)-3-azetidinyl)amino)-2-methoxyphenyl)amino)-7-oxopyrido[2,3-d]pyrimidin-8(7H)-yl)phenyl)-2-propenamide], the half-maximal inhibitory concentration (IC50) in assay [1] was 9.6 nM; in assay [2], 155 nM; in assay [3], 3 nM; in assay [4] it was 5 nM; in assay [5], 6 nM.
For the compound `COc1cc(N2CCN(C)CC2)ccc1Nc1ncc2ccc(=O)n(-c3cccc(NC(=O)CCl)c3)c2n1` [Example 12, 2-chloro-N-(3-(2-((2-methoxy-4-(4-methyl-1-piperazinyl)phenyl)amino)-7-oxopyrido[2,3-d]pyrimidin-8(7H)-yl)phenyl)acetamide], the results for the IC50 in assay [1] and in assay [3] were 680 nM and 18 nM, respectively.
Regarding `COc1cc(N2CCN(C)CC2)ccc1Nc1ncc2ccc(=O)n(-c3cccc(NC(=O)CCN(C)C)c3)c2n1` [Example 13, 3-(dimethylamino)-N-(3-(2-((2-methoxy-4-(4-methylpiperazin-1-yl)phenyl)amino)-7-oxopyrido[2,3-d]pyrimidin-8(7H)-yl)phenyl)propanamide], the concentration for half-maximal inhibition (IC50) is 128 nM in assay [1] and 76 nM in assay [3].
Regarding `C=CC(=O)Nc1cccc(-n2c(=O)ccc3cnc(Nc4ccc(NC5CN(C(C)=O)C5)cc4OC)nc32)c1` [Example 14, N-(3-(2-((4-((1-acetylazetidin-3-yl)amino)-2-methoxyphenyl)amino)-7-oxopyrido[2,3-d]pyrimidin-8(7H)-yl)phenyl)acrylamide], the IC50 in assay [1] is 190 nM; in assay [3] it was 24 nM.
As to `C=CC(=O)Nc1cccc(-n2c(=O)ccc3cnc(Nc4ccc(N5CCN(C)CC5)cc4Cl)nc32)c1` [Example 15, N-(3-(2-((2-chloro-4-(4-methyl-1-piperazinyl)phenyl)amino)-7-oxopyrido[2,3-d]pyrimidin-8(7H)-yl)phenyl)-2-propenamide], the half-maximal inhibitory concentration (IC50) in assay [1] amounted to 11 nM; in assay [3], 3.5 nM.
The corresponding values for `C=CC(=O)Nc1cccc(-n2c(=O)cc(C)c3cnc(Nc4ccc(NC5CN(CCF)C5)cc4OC)nc32)c1` [Example 16, N-(3-(2-((4-((1-(2-fluoroethyl)-3-azetidinyl)amino)-2-methoxyphenyl)amino)-5-methyl-7-oxopyrido[2,3-d]pyrimidin-8(7H)-yl)phenyl)-2-propenamide] are 22 nM and 18 nM.
Turning to `C=CC(=O)Nc1cccc(-n2c(=O)cc(C)c3cnc(Nc4ccc(N5CCN(C)CC5)cc4)nc32)c1` [Example 17, N-(3-(5-methyl-2-((4-(4-methylpiperazin-1-yl)phenyl)amino)-7-oxopyrido[2,3-d]pyrimidin-8(7H)-yl)phenyl)acrylamide], the IC50 in assay [1] stood at 3.6 nM; in assay [3], 7.3 nM.

What is called IC50 is the midpoint of a concentration-inhibition curve.
